Source: patent US11661426B2, “Imidazole-containing inhibitors of ALK2 kinase” (BioCryst Pharmaceuticals, Inc., priority 2017, dated 2023)

Biological target: ALK2 (Homo sapiens (Human), UniProt Q04771)
Experiment: ALK2 inhibition, LanthaScreen Eu Kinase Binding Assay (ThermoFisher Scientific / Life Technologies)
Conditions: read-out: Measured Ki (IC50) Value for Compounds: IC50
Protocol: Biochemical assays to measure the inhibitory effects of the compounds were performed by ThermoFisher Scientific (Life Technologies). ALK2 inhibition was tested using LanthaScreen™ Eu Kinase Binding Assay screening protocol.

ALK2, sequence (Q04771 21-509): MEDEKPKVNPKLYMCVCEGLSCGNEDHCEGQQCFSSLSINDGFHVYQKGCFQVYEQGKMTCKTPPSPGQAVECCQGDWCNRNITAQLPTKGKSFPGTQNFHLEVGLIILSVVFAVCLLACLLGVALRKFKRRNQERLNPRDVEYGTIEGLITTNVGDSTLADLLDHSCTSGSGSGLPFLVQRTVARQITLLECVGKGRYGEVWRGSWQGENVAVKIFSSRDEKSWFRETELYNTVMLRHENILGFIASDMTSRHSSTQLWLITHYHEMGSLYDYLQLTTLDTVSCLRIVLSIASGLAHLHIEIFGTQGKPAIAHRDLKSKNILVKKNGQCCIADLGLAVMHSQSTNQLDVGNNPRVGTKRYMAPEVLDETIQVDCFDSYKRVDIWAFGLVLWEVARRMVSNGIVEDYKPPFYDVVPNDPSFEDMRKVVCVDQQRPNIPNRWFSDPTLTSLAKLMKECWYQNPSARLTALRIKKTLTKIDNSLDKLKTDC

IC50	SMILES
< 100 nM	COc1cc(-n2cnc(Nc3nc(N4CCC[C@@H]4C(N)=O)nn4c(CN5CCCCC5)ccc34)c2)cc(OC)c1OC [Compound 349a, (R)-1-(7-(piperidin-1-ylmethyl)-4-((1-(3,4,5-trimethoxyphenyl)-1H-imidazol-4-yl)amino)pyrrolo[2,1-f][1,2,4]triazin-2-yl)pyrrolidine-2-carboxamide]
< 100 nM	COc1cc(-c2cnc(Nc3nc(N4CCC[C@H]4CO)nn4cccc34)s2)cc(OC)c1OC [Compound 461c, (S)-(1-(4-((5-(3,4,5-trimethoxyphenyl)thiazol-2-yl)amino)pyrrolo[2,1-f][1,2,4]triazin-2-yl)pyrrolidin-2-yl)methanol]
< 100 nM	COc1cc(-n2cnc(Nc3nc(N4C[C@H](O)C[C@H]4CO)c4cccn4n3)c2)cc(OC)c1OC [Compound 214b, (3R,5S)-5-(hydroxymethyl)-1-(2-((1-(3,4,5-trimethoxyphenyl)-1H-imidazol-4-yl)amino)pyrrolo[2,1-f][1,2,4]triazin-4-yl)pyrrolidin-3-ol]
< 100 nM	COc1cc(-n2cnc(Nc3nc(N4CCC[C@H]4CO)nc4cnccc34)c2)cc(OC)c1OC [Compound 378c, (S)-(1-(4-((1-(3,4,5-trimethoxyphenyl)-1H-imidazol-4-yl)amino)pyrido[3,4-d]pyrimidin-2-yl)pyrrolidin-2-yl)methanol]
100 to 1000 nM	CCOc1ccc(-n2cnc(Nc3nc(N4CCC[C@H]4CO)nn4cccc34)c2)cc1OCC [Compound 319b, (S)-(1-(4-((1-(3,4-diethoxyphenyl)-1H-imidazol-4-yl)amino)pyrrolo[2,1-f][1,2,4]triazin-2-yl)pyrrolidin-2-yl)methanol]
100 to 1000 nM	COc1cc(C(=O)N2CCC[C@H]2CO)cc(-n2cnc(Nc3nc(N4CCC[C@H]4CO)nn4cccc34)c2)c1 [Compound 416f, ((S)-2-(hydroxymethyl)pyrrolidin-1-yl)(3-(4-((2-((S)-2-(hydroxymethyl)pyrrolidin-1-yl)pyrrolo[2,1-f][1,2,4]triazin-4-yl)amino)-1H-imidazol-1-yl)-5-methoxyphenyl)methanone]
< 100 nM	COc1cc(-n2cnc(Nc3nc(N4CCC[C@H]4CO)nc4cc(F)ccc34)c2)cc(OC)c1OC [Compound 269a, (S)-(1-(7-fluoro-4-((1-(3,4,5-trimethoxyphenyl)-1H-imidazol-4-yl)amino)quinazolin-2-yl)pyrrolidin-2-yl)methanol]
100 to 1000 nM	COc1cc(-n2cnc(Nc3nc(C(=O)N4CCCC4)c4cccn4n3)c2)cc(OC)c1OC [Compound 419b, pyrrolidin-1-yl(2-((1-(3,4,5-trimethoxyphenyl)-1H-imidazol-4-yl)amino)pyrrolo[2,1-f][1,2,4]triazin-4-yl)methanone]
< 100 nM	COc1cc(-n2cnc(Nc3nc(N4CCC[C@H]4CO)nn4cccc34)c2)cc(C(N)=O)c1O [Compound 268b, (S)-2-hydroxy-5-(4-((2-(2-(hydroxymethyl)pyrrolidin-1-yl)pyrrolo[2,1-f][1,2,4]triazin-4-yl)amino)-1H-imidazol-1-yl)-3-methoxybenzamide]

The next lines start with the compound.

SMILES	IC50
Cn1cnc(Nc2nc(N3CCCC3c3ccccn3)nc3ccoc23)c1 (stereo not shown) [Compound 5a, N-(1-methyl-1H-imidazol-4-yl)-2-(2-(pyridin-2-yl)pyrrolidin-1-yl)furo[3,2-d]pyrimidin-4-amine]	< 100 nM
COc1cc(-n2cnc(Nc3nc(N4C[C@@H]5C[C@@H]5[C@@H]4CO)c4cccn4n3)c2)cc(OC)c1OC [Compound 324b, ((1S,2R,5R)-3-(2-((1-(3,4,5-trimethoxyphenyl)-1H-imidazol-4-yl)amino)pyrrolo[2,1-f][1,2,4]triazin-4-yl)-3-azabicyclo[3.1.0]hexan-2-yl)methanol]	100 to 1000 nM
OC[C@@H]1CCCN1c1nc(Nc2cn(-c3ccc4c(c3)OC(F)(F)O4)cn2)c2occc2n1 [Compound 339e, (S)-(1-(4-(1-(2,2-difluorobenzo[d][1,3]dioxol-5-yl)-1H-imidazol-4-ylamino)furo[3,2-d]pyrimidin-2-yl)pyrrolidin-2-yl)methanol]	100 to 1000 nM
COc1cc(-n2cnc(Nc3nc(N4CCC[C@@H]4C(N)=O)nc4scnc34)c2)cc(OC)c1OC [Compound 318a, (R)-1-(7-((1-(3,4,5-trimethoxyphenyl)-1H-imidazol-4-yl)amino)thiazolo[5,4-d]pyrimidin-5-yl)pyrrolidine-2-carboxamide]	< 100 nM
COc1cc(-n2cnc(Nc3nc(N4CCC[C@H]4C(N)=O)c4ccccc4n3)c2)cc(OC)c1OC [Compound 204b, (S)-1-(2-((1-(3,4,5-trimethoxyphenyl)-1H-imidazol-4-yl)amino)quinazolin-4-yl)pyrrolidine-2-carboxamide]	100 to 1000 nM
COc1cc(-n2cnc(Nc3nc4c(c(N5CCC[C@H]5CO)n3)CCN(Cc3cccc(OC(F)(F)F)c3)C4)c2)cc(OC)c1OC [Compound 217a, (S)-(1-(7-(3-(trifluoromethoxy)benzyl)-2-((1-(3,4,5-trimethoxyphenyl)-1H-imidazol-4-yl)amino)-5,6,7,8-tetrahydropyrido[3,4-d]pyrimidin-4-yl)pyrrolidin-2-yl)methanol]	< 100 nM
COc1cc(-n2cnc(Nc3nc4c(c(N5CCC[C@@H]5CO)n3)COC4)c2)cc(OC)c1OC [Compound 280b, (R)-(1-(2-((1-(3,4,5-trimethoxyphenyl)-1H-imidazol-4-yl)amino)-5,7-dihydrofuro[3,4-d]pyrimidin-4-yl)pyrrolidin-2-yl)methanol]	< 100 nM
COc1cc(-n2cnc(Nc3nc(N4CCC[C@@H]4CO)nc4c3CN(C(C)C)C4=O)c2)cc(OC)c1OC [Compound 275a, (R)-2-(2-(hydroxymethyl)pyrrolidin-1-yl)-6-isopropyl-4-((1-(3,4,5-trimethoxyphenyl)-1H-imidazol-4-yl)amino)-5H-pyrrolo[3,4-d]pyrimidin-7(6H)-one]	< 100 nM
COc1cc(-n2cnc(Nc3nc(N4CCC[C@H]4CO)c4ccccc4n3)c2)cc(OC)c1OC [Compound 115b, (S)-(1-(2-((1-(3,4,5-trimethoxyphenyl)-1H-imidazol-4-yl)amino)quinazolin-4-yl)pyrrolidin-2-yl)methanol]	< 100 nM
COc1cc(-n2cnc(Nc3nc(N4CCC[C@H]4CO)nc4scnc34)c2)cc(OC)c1OC [Compound 164a, (S)-(1-(7-((1-(3,4,5-trimethoxyphenyl)-1H-imidazol-4-yl)amino)thiazolo[5,4-d]pyrimidin-5-yl)pyrrolidin-2-yl)methanol]	< 100 nM
COc1cc(-n2cnc(Nc3nc(N4CCCC4)nc4c3ccn4S(=O)(=O)c3ccc(C)cc3)c2)cc(OC)c1OC [Compound 163a, 2-(pyrrolidin-1-yl)-7-tosyl-N-(1-(3,4,5-trimethoxyphenyl)-1H-imidazol-4-yl)-7H-pyrrolo[2,3-d]pyrimidin-4-amine]	100 to 1000 nM
COc1cc(-n2cnc(Nc3nc(N4CCCC4)nc4scnc34)c2)cc(OC)c1OC [Compound 197a, 5-(pyrrolidin-1-yl)-N-(1-(3,4,5-trimethoxyphenyl)-1H-imidazol-4-yl)thiazolo[5,4-d]pyrimidin-7-amine]	< 100 nM
COc1cc(-n2cnc(Nc3nc(N4CCC[C@H]4CO)c4c(C)nn(C5CC(F)(F)C5)c4n3)c2)cc(OC)c1OC [Compound 459c, (S)-(1-(1-(3,3-difluorocyclobutyl)-3-methyl-6-((1-(3,4,5-trimethoxyphenyl)-1H-imidazol-4-yl)amino)-1H-pyrazolo[3,4-d]pyrimidin-4-yl)pyrrolidin-2-yl)methanol]	< 100 nM
